# Test results: patent publication US4069331A, “N-(p-fluorobenzoyl-n-propyl)-4-piperidylamides and salts thereof” (Boehringer Ingelheim GmbH, priority 1974, dated 1978)
# Columns and labels:
# [1] = inhibition of exploration (Planche-a-Trous situation); assay type: in vivo, Mouse (albino, NMRI); details: mouse, oral, suspension in olive oil or gum arabic; 50% decrease of exploration
# Procedure: (§1) Those compounds of the formula I wherein R is methyl, ethyl and isopropyl and the structurally most closely related compound disclosed in the prior art, namely 1-[4-(4-fluorophenyl)-4-oxobutyl]-4-benzamidopiperidine disclosed in British patent specification No. 1,345,872, were tested for adrenaline-antagonistic activity, inhibition of locomotion, inhibition of exploration and toxicity by standard pharmacological test methods, and in each case the median effective dose (ED50) or the median lethal dose (LD50), respectively, were calculated graphically from dose-activity graphs. Albino mice (NMRI) having a body weight of 20-25 gm were used as the test animals, 10 animals per dose and untreated controls. The test compounds were administered orally in suspension in olive oil or gum arabic.
# 2. The inhibiting effect on exploration was determined by the method of J.R. Borssin et al, Therapie 19, 571 (1964). The ED50 is the dose which produces a 50% decrease of exploration in the Planche-a-Trous situation.
# [2] = toxicity (24 hours observation); details: in vivo, mouse, oral, suspension in olive oil or gum arabic
# Procedure: as §1
# 4. The toxicity was determined over an observation period of 24 hours. The LD50 was calculated by the method J.T. Litchfield and F. Wilcoxon, J. Pharm. Exp. Ther. 96, 99 (1949).
# adrenaline (epinephrine) = test: adrenaline-antagonistic activity (protection against a lethal dose of adrenaline); assay type: in vivo, Mouse (albino, NMRI); details: mouse, oral, suspension in olive oil or gum arabic; 50% protection against lethal dose of adrenaline; read-out: Adrenaline-antagonism (ED50)
# Procedure: as §1
# 1. The adrenaline-antagonistic activity was determined by the method of P.A.J. Janssen et al, Arzneimittelforschung (Drug Research) 13, 203 (1963). […] The ED50 is the dose which produces a 50% protection against a lethal dose of adrenaline (epinephrine).
# [3] = inhibition of locomotion (open field test); assay type: in vivo, Mouse (albino, NMRI); details: mouse, oral, suspension in olive oil or gum arabic; 50% attenuation of locomotion
# Procedure: as §1
# 3. The inhibiting effect on locomotion was determined by the method of P.A.J. Janssen et al, Psychopharmacologia 1, 389 (1960). The ED50 is the dose which produces a 50% attenuation of locomotion in the open field test.
SMILES,ED50 [1] [mg/kg],LD50 at 24 h [2] [mg/kg],ED50 (adrenaline (epinephrine)) [mg/kg],ED50 [3] [mg/kg]
"O=C(CCCN1CCC(NC(=O)c2ccccc2)CC1)c1ccc(F)cc1 [C6 H5, 1-[4-(4-fluorophenyl)-4-oxobutyl]-4-benzamidopiperidine, reference compound]",45,300,3.3,135
CC(=O)NC1CCN(CCCC(=O)c2ccc(F)cc2)CC1 [Example 1],8,1050,0.06,4
"CCC(=O)NC1CCN(CCCC(=O)c2ccc(F)cc2)CC1 [Example 2, N-[3'-(p-fluoro-benzoyl)-n-propyl]-4-(propionyl-amino) -piperidine]",4.4,1160,0.1,6
"CC(C)C(=O)NC1CCN(CCCC(=O)c2ccc(F)cc2)CC1 [Example 4, N-[3'-(p-fluoro-benzoyl)-n-propyl]-4-(isobutyryl-amino) -piperidine]",9,1850,0.58,10
